Test results as given in PubChem BioAssay (NCI).
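GI50 is the concentration that inhibits growth by half. Definition used: TGI = concentration required for complete inhibition of growth.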

What was measured:
Assay in all cases: growth of human tumour cells (NCI), 384-well format
T-47D breast = system: T-47D breast
OVCAR-8 ovarian = system: OVCAR-8 ovarian
RXF 393 renal = system: RXF 393 renal
NCI-H226 lung = system: NCI-H226 lung
HCT-15 colon = system: HCT-15 colon
KM12 colon = system: KM12 colon
SNB-19 CNS = system: SNB-19 CNS
CAKI-1 renal = system: CAKI-1 renal
HCC-2998 colon = system: HCC-2998 colon
MDA-MB-231 breast = system: MDA-MB-231 breast
EKVX NSCLC = system: EKVX NSCLC
LOX IMVI melanoma = system: LOX IMVI melanoma
MALME-3M melanoma = system: MALME-3M melanoma
SF-539 CNS = system: SF-539 CNS
NCI/ADR-RES ovarian = system: NCI/ADR-RES ovarian
ACHN renal = system: ACHN renal
M14 melanoma = system: M14 melanoma
HOP-62 NSCLC = system: HOP-62 NSCLC
SR leukemia = system: SR leukemia
HT29 colon = system: HT29 colon
UACC-62 melanoma = system: UACC-62 melanoma
PC-3 prostate = system: PC-3 prostate
A498 renal = system: A498 renal
SF-295 CNS = system: SF-295 CNS
HCT-116 colon = system: HCT-116 colon
SK-MEL-5 melanoma = system: SK-MEL-5 melanoma
SK-MEL-2 melanoma = system: SK-MEL-2 melanoma
HOP-92 NSCLC = system: HOP-92 NSCLC
MOLT-4 leukemia = system: MOLT-4 leukemia
TK-10 renal = system: TK-10 renal
MCF7 breast = system: MCF7 breast
UO-31 renal = system: UO-31 renal
SK-MEL-28 melanoma = system: SK-MEL-28 melanoma
NCI-H322M lung = system: NCI-H322M lung
HL-60(TB) leukemia = system: HL-60(TB) leukemia
SNB-75 CNS = system: SNB-75 CNS
SW-620 colon = system: SW-620 colon
OVCAR-3 ovarian = system: OVCAR-3 ovarian
SK-OV-3 ovarian = system: SK-OV-3 ovarian
U251 glioblastoma = system: U251 glioblastoma
A549 NSCLC = system: A549 NSCLC
IGROV1 ovarian = system: IGROV1 ovarian
BT-549 breast = system: BT-549 breast
SF-268 CNS = system: SF-268 CNS
MDA-MB-435 melanoma = system: MDA-MB-435 melanoma
K-562 leukemia = system: K-562 leukemia
OVCAR-4 ovarian = system: OVCAR-4 ovarian
OVCAR-5 ovarian = system: OVCAR-5 ovarian
786-0 renal = system: 786-0 renal
UACC-257 melanoma = system: UACC-257 melanoma
NCI-H460 NSCLC = system: NCI-H460 NSCLC
MDA-MB-468 breast = system: MDA-MB-468 breast
DU-145 prostate = system: DU-145 prostate
HS 578T breast = system: HS 578T breast
NCI-H23 lung = system: NCI-H23 lung
NCI-H522 lung = system: NCI-H522 lung
SN12C renal = system: SN12C renal
RPMI-8226 leukemia = system: RPMI-8226 leukemia

`Cc1cnc(-c2ccc(-c3ccc(NC(=O)Nc4cccc(C(F)(F)F)c4)cc3F)c3c2C(=O)NC3)[nH]1` gave a GI50 (T-47D breast) of 2060 nM, a TGI (T-47D breast) of 6710 nM and a GI50 (OVCAR-8 ovarian) of 1210 nM. The TGI (OVCAR-8 ovarian) was 10500 nM, the GI50 (RXF 393 renal) was 923 nM and the TGI (RXF 393 renal) was 3400 nM. For the same compound, the GI50 (NCI-H226 lung) was 284 nM, the TGI (NCI-H226 lung) was 3150 nM and the GI50 (HCT-15 colon) was 926 nM. For the same compound, the TGI (HCT-15 colon) was 4450 nM, the GI50 (KM12 colon) was < 10 nM and the TGI (KM12 colon) was 1320 nM. The GI50 (SNB-19 CNS) was 1700 nM, the TGI (SNB-19 CNS) was 4540 nM and the GI50 (CAKI-1 renal) was 145 nM. It also gave a TGI (CAKI-1 renal) of 8830 nM, a GI50 (HCC-2998 colon) of 2860 nM and a TGI (HCC-2998 colon) of 6700 nM. It also gave a GI50 (MDA-MB-231 breast) of 1680 nM, a TGI (MDA-MB-231 breast) of 8560 nM and a GI50 (EKVX NSCLC) of 91.7 nM. For the same compound, the TGI (EKVX NSCLC) was 4160 nM, the GI50 (LOX IMVI melanoma) was 444 nM and the TGI (LOX IMVI melanoma) was 2370 nM. For the same compound, the GI50 (MALME-3M melanoma) was 590 nM, the TGI (MALME-3M melanoma) was 3820 nM and the GI50 (SF-539 CNS) was 60.9 nM. The TGI (SF-539 CNS) was 1740 nM, the GI50 (NCI/ADR-RES ovarian) was 24000 nM and the TGI (NCI/ADR-RES ovarian) was > 100000 nM. The GI50 (ACHN renal) was 681 nM, the TGI (ACHN renal) was 10300 nM and the GI50 (M14 melanoma) was 126 nM. The TGI (M14 melanoma) was 3180 nM, the GI50 (HOP-62 NSCLC) was 103 nM and the TGI (HOP-62 NSCLC) was 2030 nM. The GI50 (SR leukemia) was < 10 nM, the TGI (SR leukemia) was 14.4 nM and the GI50 (HT29 colon) was 2180 nM. It also gave a TGI (HT29 colon) of 13600 nM, a GI50 (UACC-62 melanoma) of 276 nM and a TGI (UACC-62 melanoma) of 4730 nM. It also gave a GI50 (PC-3 prostate) of 1960 nM, a TGI (PC-3 prostate) of 5350 nM and a GI50 (A498 renal) of 134 nM. It also gave a TGI (A498 renal) of 2210 nM, a GI50 (SF-295 CNS) of 93.3 nM and a TGI (SF-295 CNS) of 4690 nM. For the same compound, the GI50 (HCT-116 colon) was 248 nM, the TGI (HCT-116 colon) was 2220 nM and the GI50 (SK-MEL-5 melanoma) was 1010 nM. It also gave a TGI (SK-MEL-5 melanoma) of 4350 nM, a GI50 (SK-MEL-2 melanoma) of 751 nM and a TGI (SK-MEL-2 melanoma) of 3240 nM. The GI50 (HOP-92 NSCLC) was 685 nM, the TGI (HOP-92 NSCLC) was 3310 nM and the GI50 (MOLT-4 leukemia) was < 10 nM. For the same compound, the TGI (MOLT-4 leukemia) was 11.7 nM, the GI50 (TK-10 renal) was 1050 nM and the TGI (TK-10 renal) was 4470 nM. The GI50 (MCF7 breast) was 1080 nM, the TGI (MCF7 breast) was 4280 nM and the GI50 (UO-31 renal) was 81.7 nM. The TGI (UO-31 renal) was 1460 nM, the GI50 (SK-MEL-28 melanoma) was 1300 nM and the TGI (SK-MEL-28 melanoma) was 12200 nM. For the same compound, the GI50 (NCI-H322M lung) was 7120 nM, the TGI (NCI-H322M lung) was 26500 nM and the GI50 (HL-60(TB) leukemia) was 16.2 nM. For the same compound, the TGI (HL-60(TB) leukemia) was 1050 nM, the GI50 (SNB-75 CNS) was 1130 nM and the TGI (SNB-75 CNS) was 2660 nM. For the same compound, the GI50 (SW-620 colon) was 83.5 nM, the TGI (SW-620 colon) was 3640 nM and the GI50 (OVCAR-3 ovarian) was 75.5 nM. For the same compound, the TGI (OVCAR-3 ovarian) was 2110 nM, the GI50 (SK-OV-3 ovarian) was 926 nM and the TGI (SK-OV-3 ovarian) was 4140 nM. It also gave a GI50 (U251 glioblastoma) of 1340 nM, a TGI (U251 glioblastoma) of 3170 nM and a GI50 (A549 NSCLC) of 1050 nM. It also gave a TGI (A549 NSCLC) of 6400 nM, a GI50 (IGROV1 ovarian) of 1320 nM and a TGI (IGROV1 ovarian) of 12400 nM. It also gave a GI50 (BT-549 breast) of 130 nM, a TGI (BT-549 breast) of 2820 nM and a GI50 (SF-268 CNS) of 261 nM. For the same compound, the TGI (SF-268 CNS) was 3000 nM, the GI50 (MDA-MB-435 melanoma) was 1270 nM and the TGI (MDA-MB-435 melanoma) was 10100 nM. It also gave a GI50 (K-562 leukemia) of 51.6 nM, a TGI (K-562 leukemia) of 1300 nM and a GI50 (OVCAR-4 ovarian) of 96.5 nM. It also gave a TGI (OVCAR-4 ovarian) of 2660 nM, a GI50 (OVCAR-5 ovarian) of 5690 nM and a TGI (OVCAR-5 ovarian) of 22700 nM. The GI50 ([…]-0 renal) was 1470 nM, the TGI (786-0 renal) was 3730 nM and the GI50 (UACC-257 melanoma) was 1730 nM. It also gave a TGI (UACC-257 melanoma) of 9250 nM, a GI50 (NCI-H460 NSCLC) of 38.1 nM and a TGI (NCI-H460 NSCLC) of 1360 nM. It also gave a GI50 (MDA-MB-468 breast) of 28.2 nM, a TGI (MDA-MB-468 breast) of 75.4 nM and a GI50 (DU-145 prostate) of 1270 nM. For the same compound, the TGI (DU-145 prostate) was 7710 nM, the GI50 (HS 578T breast) was 50.3 nM and the TGI (HS 578T breast) was 1530 nM. It also gave a GI50 (NCI-H23 lung) of 783 nM, a TGI (NCI-H23 lung) of 2390 nM and a GI50 (NCI-H522 lung) of 34.5 nM. It also gave a TGI (NCI-H522 lung) of 1600 nM, a GI50 (SN12C renal) of 75.5 nM and a TGI (SN12C renal) of 2270 nM. The GI50 (RPMI-8226 leukemia) was 31 nM and the TGI (RPMI-8226 leukemia) was 1490 nM.
